ChEMBL document CHEMBL4411289, “Antinociceptive Potential of Zinnia grandiflora” (2019)
Active and inactive are the calls of the source. The rule behind the calls is not given here.

How the values were obtained:
Mus musculus [1] = assay: Antinociceptive activity in ICR mouse assessed as reduction in licking time during phase 1 (acute phase) at 3.16 to 31.6 mg/kg, po dosed 30 mins before formalin injection and by formalin test; format: functional, organism-based
Mus musculus [2] = assay: Antinociceptive activity in ICR mouse assessed as reduction in licking time during phase 2 (tonic response phase) at 3.16 to 31.6 mg/kg, po dosed 30 mins before formalin injection and by formalin test; format: functional, organism-based
Mus musculus [3] = assay: Antinociceptive activity in ICR mouse assessed as reduction in licking time at 31.6 mg/kg, po dosed 30 mins before formalin injection and by formalin test; format: functional; set-up: scale not given: the % may be the effect or the level left

SMILES	Activity (Mus musculus [1])	Activity (Mus musculus [2])	Activity (Mus musculus [3]) [%]
C=C[C@@]1(C)[C@H]2OC(=O)C(=C)[C@H]([C@@H]2OC(=O)/C(C)=C\C)[C@H](OC(=O)C(C)C)[C@@H]1C(=C)C(=O)O	Active	Active	–
O=C(O)Cc1ccccc1Nc1c(Cl)cccc1Cl [DICLOFENAC]	–	–	40.9
